Measurements taken from patent US4634709A, “Platelet aggregation inhibitory agents and intermediates therefor” (Research Corporation, priority 1984, dated 1987).
Where a name gives a salt, the structure may show the parent alone. Read-outs that look alike come from different tables or passages of the source.

Columns and labels:
[1] = tested on: human blood platelet aggregation, ADP-induced; assay: Inhibition of ADP-induced human blood platelet aggregation (aggregometry, platelet-rich plasma); format: cell-based; conditions: for inhibition at 50 µM: 50 μM evaluant, % reduction in maximal aggregation intensity vs control; for inhibition at 500 µM: 500 μM evaluant; for inhibition at 100 µM: read-out: % inhibition of aggregation, ADP-induced
Protocol: (§1) Adenosine diphosphate (ADP) used to induce platelet aggregation was employed as the sodium salt. A 10 mM stock solution was prepared fresh before each use in modified Tyrode's buffer and working dilutions were prepared with modified Tyrode's buffer immediately prior to use. The buffer contained NaCl (137.00 mM), KCl (2.70 mM), NaHCO3 (11.90 mM), NaH2 PO4.H2 O (0.36 mM) and glucose (5.60 mM) in redistilled water. Adjustment to pH 7.4 was effected by addition of 1N HCl. A solution of highly purified human α-thrombin (10,624 units/ml) wss stored at -70° C. in 10 μl aliquots. The latter were diluted with modified Tyrode's buffer to a concentration of 10.0 units/ml immediately prior to use.
(§2) Venous blood for the examples set forth below was collected in plastic syringes from healthy male volunteers (aged 21-30 years) who had fasted overnight and had abstained from all medications, alcohol, tobacco and caffeine for a period of at least one week prior to donations. In experiments employing ADP as the aggregation-inducing agent, the blood was transferred into siliconized centrifuge tubes containing 3.2% sodium citrate (blood/citrate ratio 8:1); in thrombin-induced aggregations, 3.8% sodium citrate (blood/citrate ratio 9:1) was used. The cirtrated whole blood was centrifuged at 120×g for 15 minutes at 23° C., yielding platelet-rich plasma (PRP); platelet-poor plasma (PPP) was obtained by centrifugation of citrated whole blood at 1,100×g for […] at 23° C. The platelet count of PRP was determined and adjusted to a final count of 300,000 platelets per mm^3 by dilution with autologous PPP. (Occasionally, blood from a given donor yielded PRP with a count lower than the stipulated figure; however, this was usually greater than 285,000, and never less than 250,000 platelets per mm^3.) The plasma so obtained was transferred in 1.2-ml aliquots to siliconized glass tubes, by means of a siliconized Pasteur pipet. In order to maintain plasma pH in the appropriate range, the air in the tubes was displaced gently (1 minute) with a 5% CO2 -95% air (v/v) mixture and the tubes sealed with Parafilm according to the method of Han et al, Br. J. Haematol. Vol. 26, pages 373-389 (1974). The plasma was maintained at 37° C. in a water bath until used in the aggregation experiments.
Assays of platelet aggregation was performed at least in duplicate, using plasma acquired from different donors, employing a method developed by Quintana et al (Quintana et al, Thromb. Res., Vol. 22, pages 665-680 (1981); Quintana et al, Thromb. Res., Vol. 20, pages 405-415 (1980) (cf. Born, Nature, Vol. 194, pages 927-929 (1962) and Mustard et al, J. Lab. Clin. Med., Vol. 64, pages 548-559 (1964)).
Initially, in each experiment, 0.45-ml aliquots of PRP were placed in siliconized cuvettes and stirred (1,100 rpm) in the aggregometer at 37° C. to ascertain the absence of spontaneous aggregation. Appropriate ADP solutions (50 μl) were subsequently injected using a Hamilton microliter syringe to determine the minimal concentration eliciting maximal biphasic aggregation. This ranged from 2 μM to 8 μM (cf. Quintana et al, Thromb. Res., Vol. 22, pages 665-680 (1981); Quintana et al, Thromb. Res., Vol. 20, pages 405-415 (1980)). In each case, the concentration of ADP so determined was used in eliciting aggregation throughout each specific set of aggregometric evaluations. In all thrombin-induced aggregation experiments the same stimulus was applied; this constituted injection of 50 μl of the solution containing 10.0 units of α-thrombin/ml (affording a final concentration of 1.0 unit of α-thrombin/ml PRP).
0.5 μl of a solution of the evaluant compound in redistilled 95% ethanol was injected into a stirred (1,100 rpm) 0.45-ml aliquot of plasma in a siliconized cuvette in the aggregometer-well (37° C.). After 15 seconds, the cuvette was transferred to an incubator (also at 37° C.) and the contents held at this temperature, without stirring, until 2 minutes post-injection. […]

[2] = tested on: platelet aggregation, ADP-induced; conditions: cited from earlier work
[3] = tested on: human blood platelet aggregation, thrombin-induced; assay: Inhibition of thrombin-induced human blood platelet aggregation (aggregometry, platelet-rich plasma); format: cell-based; conditions: for % inhibition of aggregation, thrombin-induced: 50 μM evaluant, human PRP, 1.0 unit α-thrombin/ml PRP
Protocol: as §1
as §2, with “experiments. […]” for “experiments.”
Initially, in each experiment, 0.45-ml aliquots of PRP were placed in siliconized cuvettes and stirred (1,100 rpm) in the aggregometer at 37° C. to ascertain the absence of spontaneous aggregation. […] In each case, the concentration of ADP so determined was used in eliciting aggregation throughout each specific set of aggregometric evaluations. […]

[4] = literature; cited from earlier work
patient's platelets = conditions: Walder et al; cited from earlier work
[5] = Platelet, 100 μM evaluant, human PRP

For `c1ccc2c(c1)CCN(Cc1ccc(CN3CCc4ccccc4C3)cc1)C2` [Example 2, α,α'-Bis(1,2,3,4-tetrahydroisoquinolino)-p-xylene Dihydrobromide], the inhibition at 50 µM ([1]; Platelet, human PRP) was 0% and the “ADP-induced platelet aggregation inhibition, in words” value ([1]; Table 1 footnote 5) was “inactive”.
`CCCCN(CCCC)C(=O)C1CCCN(Cc2ccc(CN3CCCC(C(=O)N(CCCC)CCCC)C3)cc2)C1` (stereo not drawn) [Example 14, α,α'-Bis[3-(N,N--dibutylcarbamoyl)piperidino]-p-xylene Dihydrobromide] showed an inhibition at 50 µM ([1]; Platelet, human PRP) of 49.7%.
With `CCCCCCCCCCN1CCCc2cc(O)ccc21` [Example 9, 1-Decyl-6-hydroxy-1,2,3,4-tetrahydroquinoline Hydriodide] the inhibition at 50 µM ([1]; Platelet, human PRP) was 33%.
For `O=C1C(CC[S+]([O-])c2ccccc2)C(=O)N(c2ccccc2)N1c1ccccc1` (stereo not shown) [sulfinpyrazone], the “inhibition in ADP-induced aggregation” value ([2]; 2,470 μM, Packham et al) is given as 0%.
In the case of `CN1CCCC(C(=O)NCCCCCCNC(=O)C2CCCN(C)C2)C1` (stereo not shown) [Example 31, 1,6-Bis[N--(1-methylnipecotoyl)amino]hexane Dihydriodide], the inhibition at 500 µM ([1]; Platelet, human PRP) is reported as 17%.
Molecule `CCCCCCCCN(C)C(=O)C1CCCNC1` (stereo not shown) [Example 21, N--Methyl-N--octylnipecotamide] has an inhibition at 100 µM [1, 5] of 49.9%.
Molecule `CCCCCCCCCCCCCCN1CCCc2cc(O)ccc21` [Example 12, 1-Tetradecyl-6-hydroxy-1,2,3,4-tetrahydroquinoline Hydriodide] has an inhibition at 50 µM ([1]; Platelet, human PRP) of 0%.
`CCCCCCCCCCNC(=O)C1CCCN(C)C1` (stereo not shown) [Example 25, 1-Methyl-3-(N--decylcarbamoyl)piperidine Hydriodide] showed an inhibition at 100 µM [1, 5] of 45.6%.
With `CCCCN(CCCC)C(=O)C1CCCN(C)C1` (stereo not shown) [Example 23, 1-Methyl-3-(N,N--dibutylcarbamoyl)piperidine Hydriodide] the inhibition at 100 µM [1, 5] was 11.8%.
With `CCCCCCN1CCCc2cc(O)ccc21` [Example 11, 1-Hexyl-6-hydroxy-1,2,3,4-tetrahydroquinoline Hydriodide] the inhibition at 50 µM ([1]; Platelet, human PRP) was 37.2% and the inhibition at 100 µM [1, 5] was 45.9%.
Work on `O=C(C1CCCNC1)N1CCN(C(=O)C2CCCNC2)CC1` (stereo not shown) [Example 35, N,N'--Bis(nipecotoyl)piperazine Dihydrobromide] yielded an inhibition at 500 µM ([1]; Platelet, human PRP) of 48.9%.
`C[N+]1(CCCCCCCCCC[N+]2(C)CCCCC2)CCCCC1` [Example 33, 1,10-Bis(N--methylpiperidinium)decane Diiodide] gave an inhibition at 100 µM ([1]; Homo sapiens, Platelet) of 0%.
Work on `CCCCCCCCCCN(CCCCCCCCCC)C(=O)C1CCCN(Cc2ccc(CN3CCCC(C(=O)N(CCCCCCCCCC)CCCCCCCCCC)C3)cc2)C1` (stereo not drawn) [Example 16, α,α'-Bis[3-(N,N--didecylcarbamoyl)piperidino]-p-xylene Dihydrobromide] yielded an inhibition at 50 µM ([1]; Platelet, human PRP) of 0%.
In the case of `CCCCCCN1CCCC(C(=O)N(C)CCN(C)C(=O)C2CCCN(CCCCCC)C2)C1` (stereo not shown) [Example 41, 1,2-Bis[N--(1-hexylnipecotoyl)-N--methylamino]ethane Dihydriodide], the inhibition at 50 µM ([1]; Platelet, human PRP) is reported as 71.6%.
With `CCCCCCCCN(C)C(=O)c1cccnc1` [Example 20, N--Methyl-N--octylnicotinamide] the inhibition at 100 µM [1, 5] was 12.1%.
In the case of `OCCN(CCO)c1nc(N2CCCCC2)c2nc(N(CCO)CCO)nc(N3CCCCC3)c2n1` [dipyridamole], the “inhibition in ADP-induced aggregation” value ([2]; 250 μM, Cucuiani et al) is listed as 10%.
For `CCCCCCCCCCN1CCCC(C(=O)N(CCCC)CCCCCCN(CCCC)C(=O)C2CCCN(CCCCCCCCCC)C2)C1` (stereo not shown) [Example 43, 1,6-Bis[N--(1-decylnipecotoyl)-N--butylamino]hexane Dihydriodide], the inhibition at 50 µM ([1]; Platelet, human PRP) was 38.6%.
Molecule `CCCCN(CCCC)C(=O)c1cccnc1` [Example 13, N,N--Dibutylnicotinamide] has an inhibition at 100 µM [1, 5] of 0%.
Work on `CCCCCCCCCCN1CCCC(C(=O)N(C)CCN(C)C(=O)C2CCCN(CCCCCCCCCC)C2)C1` (stereo not shown) [Example 40, 1,2-Bis[N--(1-decylnipecotoyl)-N--methylamino]ethane Dihydriodide] yielded an inhibition at 50 µM ([1]; Platelet, human PRP) of 82.6%.
With `Oc1ccc2c(c1)CCCN2CCCCCCCCCCN1CCCc2cc(O)ccc21` [Example 7, 1,10-Bis(6-hydroxy-1,2,3,4-tetrahydroquinolino)decane Dihydriodide] the inhibition at 50 µM ([1]; Platelet, human PRP) was 25.9%.
For `CCCCCCCCCCN1CCCC(C(=O)N2CCN(C(=O)C3CCCN(CCCCCCCCCC)C3)CC2)C1` (stereo not shown) [Example 37, N,N'--Bis(1-decylnipecotoyl)piperazine Dihydriodide], the inhibition at 10 µM ([1]; Platelet, 10 μM evaluant, human PRP) was 48.3%, the inhibition at 50 µM ([1]; Platelet, human PRP) was 93.8% and the “% inhibition of aggregation, thrombin-induced” value (shortened to “% inhibition of aggregation”) [3] was 88.2%.
In the case of `O=C(O)C1CCCNC1` (stereo not shown) [nipecotic acid, Piperidine-3-carboxylic acid], the “deleterious / adverse effects” value [4] is listed as “has not been discerned to have deleterious effects”.
For `CCCCCCCCCCNC(=O)C1CCCN(Cc2ccc(CN3CCCC(C(=O)NCCCCCCCCCC)C3)cc2)C1` (stereo not drawn) [Example 19, α,α'-Bis[3-(N--decylcarbamoyl)piperidino]-p-xylene Dihydrobromide], the inhibition at 50 µM ([1]; Platelet, human PRP) was 0%.
In the case of `CC(=O)Oc1ccccc1C(=O)O` [aspirin, reference compound], the inhibition at 50 µM ([1]; Platelet, human PRP) is listed as 24%, the “% inhibition of aggregation” value [3] is listed as 9% and the “deleterious / adverse effects” value [4] is listed as “severe enough to counsel against its use by survivors of myocardial infarction”. For the same molecule, the “effect on patient's platelets” value (patient's platelets) was “incapacitate the patient's platelets for the rest of their life span”.
In the case of `CN1CCCC(C(=O)NCCCCCCCCCCNC(=O)C2CCCN(C)C2)C1` (stereo not shown) [Example 28, 1,10-Bis[N--(1-methylnipecotoyl)amino]decane Dihydriodide], the inhibition at 50 µM ([1]; Platelet, human PRP) is reported as 30.9%.
In the case of `CCCCCCN1CCCC(C(=O)N(CCCC)CCCCCCN(CCCC)C(=O)C2CCCN(CCCCCC)C2)C1` (stereo not shown) [Example 44, 1,6-Bis[N--(1-hexylnipecotoyl)-N--butylamino]hexane Dihydriodide], the inhibition at 50 µM ([1]; Platelet, human PRP) is reported as 72.4%.
In the case of `CN(C)CCCN1c2ccccc2Sc2ccc(Cl)cc21` [chloropromazine, reference compound], the “effectiveness in ADP-induced aggregation compared with the piperidine derivatives” value ([1]; in words) is reported as “considerably less effective” and the “effectiveness in thrombin-induced aggregation compared with the piperidine derivatives” value ([3]; in words, FIG. 2) is reported as “much less effective”.
With `Oc1ccc2c(c1)CCCN2Cc1ccc(CN2CCCc3cc(O)ccc32)cc1` [Example 5, α,α'-Bis(6-hydroxy-1,2,3,4-tetrahydroquinolino)-p-xylene Dihydrobromide] the inhibition at 50 µM ([1]; Platelet, human PRP) was 21.5%.
`CCCCCCCCN(C)C(=O)C1CCCN(C)C1` (stereo not shown) [Example 22, 1-Methyl-3-(N--methyl-N--octylcarbamoyl)piperidine Hydriodide] showed an inhibition at 100 µM [1, 5] of 33.1%.
In the case of `CN(CCN(C)C(=O)C1CCCNC1)C(=O)C1CCCNC1` (stereo not shown) [Example 39, 1,2-Bis(N-nipecotoyl-N-methylamino)ethane dihydrobromide], the inhibition at 500 µM ([1]; Platelet, human PRP) is reported as 46.3%.
For `CCCCCCCCCCN1CCCC(C(=O)N(C)CCCCCCN(C)C(=O)C2CCCN(CCCCCCCCCC)C2)C1` (stereo not shown) [Example 42, 1,6-Bis[N--(1-decylnipecotoyl)-N--methylamino]hexane Dihydriodide], the inhibition at 50 µM ([1]; Platelet, human PRP) was 85.6% and the “% inhibition of aggregation” value [3] was 88.3%.
